# Measured values taken from US10080728B2, “Hemostatic agent” (priority 2015, dated 2018).
# Key:
# [1] = system: eyeball pain; assay: Eyeball pain in posttraumatic processes, VAS (Example 2.16); format: in vivo, human; details: eyeball lesions, instilled into the conjunctival sac
# Description: Evaluation of efficiency of the claimed substance for eyeball pain reduction in posttraumatic processes. The claimed substance solution was instilled into the conjunctival sac of patients with various lesions of the eyeball, including after surgery. As a reference, diclofenac eye drops were used. For efficiency evaluation the change in the pain sensation intensity on the visual analog scale (VAS) from 0 to 10 points was used.
# [2] = system: postoperative pain; assay: Postoperative pain syndrome after laparoscopic cholecystectomy, VAS (Example 2.8); format: in vivo, human
# Method: Evaluation of efficiency of the claimed substance for pain reduction was studied in patients suffering the postoperative pain syndrome. After laparoscopic cholecystectomy the claimed substance was applied onto the affected areas of the patients in the form of a solution/spray in a concentration of 0.01% to 10%. As a comparison preparation for surface anesthesia oxybuprocaine was used. To evaluate efficiency the change in the pain sensation intensity on the visual analog scale (VAS) in 1 minute after application/administration of the preparation and after 2 days in case of everyday application was used.
# [3] = system: corneal sensitivity of the rabbit's eye; assay: Topical (corneal) anesthetic activity in rabbit's eye (Example 2.1); format: in vivo, rabbits; details: 0.5% aqueous solution into the conjunctival sac of the rabbit's eye
# Method: A study to determine anesthetic activity was carried out in unanesthetized rabbits, which were placed in a special box with a hole to restrain the animal's head. The study was conducted to determine the threshold of sensitivity of the rabbit's eye to a tactile impact. For this purpose, a thin metal wire was used without injuring the cornea. The examined compound and the reference drug (oxybuprocaine) were administered into the conjunctival sac of the rabbit's eye in the form of a 0.5% aqueous solution with the total volume of up to 0.4 ml. Determination of topical anaesthesia was performed starting from the 1st minute of the study. The absence of the blinking reflex for 1 min (100 touches) was considered as an indicator of full anesthesia. Based on the collected data reflecting the changes in corneal sensitivity under the influence of the drugs, the beginning, the duration of complete (100%) anesthesia and the total duration of anesthesia were determined.
# The relative activity of the tested compounds was calculated according to the Valet equation. The Rainier index is 852.4 for the claimed preparation and 63.5 for the reference preparation. The duration of anesthesia was 234 minutes for the claimed preparation and 24 min for oxibuprocaine.
# [4] = system: bleeding from liver wounds; assay: Hemostatic activity together with aluminum sulfate gel or silver nitrate solution (Example 1.6); format: in vivo, rabbits
# Method: The influence of the claimed substance on the hemostatic function was examined in rabbits of both sexes weighing 2000-4000 g. The experiments were carried out under general anesthesia. The animals underwent a laparotomy with a section made along the white line of the abdomen. The intestine was exteriorized into the wound and limited by wipes moistened with 0.9% sodium chloride solution (temperature […]), as well as the front surface of the liver. A superficial wound of the liver by the area of 1.5 cm^2 and the depth of 0.1 cm was inflicted by means of a razor. […] An animal model was used in the experiment, as described in Example No. 4. Hemostatic activity was evaluated by the change of the bleeding intensity.
# [5] = system: chest pain and bloody sputum; assay: Inhalation in chronic obstructive pulmonary disease: chest pain VAS and blood in sputum (Example 2.13); format: in vivo, human; details: for Pain sensation intensity on a visual analog scale: chronic obstructive pulmonary disease, inhalation by nebulizer
# [6] = system: capillary-parenchymal bleeding from liver wounds; assay: Hemostatic activity of solution or spray on superficial liver wound (Example 1.1); format: in vivo, rabbits
# Method: The influence of the claimed substance on the hemostatic function was examined in rabbits of both sexes weighing 2000-4000 g. The experiments were carried out under general anesthesia. The animals underwent a laparotomy with a section made along the white line of the abdomen. The intestine was exteriorized into the wound and limited by wipes moistened with 0.9% sodium chloride solution (temperature […]), as well as the front surface of the liver. A superficial wound of the liver by the area of 1.5 cm^2 and the depth of 0.1 cm was inflicted by means of a razor.
# Arrest of the capillary-parenchymal bleeding was carried out by uniform application of a 1% solution or a spray of the claimed substance on the entire area of the wound surface. At that, iron subsulfat was used for comparison of the bleeding arrest time. Hemostatic activity was evaluated by the change of the bleeding intensity.
# [7] = system: itch at genital candidiasis; assay: Itch reduction at genital candidiasis, ISS (Example 2.3); format: in vivo; details: rounded to the higher value
# Method: Evaluation of the claimed substance's anesthetic activity to reduce itch at genital candidiasis was studied when applied onto mucosae in the form of a 0.01% to 10% solution or by administering vaginal suppositories containing the claimed substance. To evaluate the efficiency the change in the itch sensation intensity on the Itch Severity Score (ISS) in 1 minute after application/administration of the product and after 5 days in case of everyday administration was used.
# [8] = system: pain with soft corn; assay: Anesthetic activity, pain with soft corn, VAS (second Example 1.8); format: in vivo; details: soft corns
# Method: Evaluation of the claimed substance's anesthetic activity was studied when dispersing a spray containing 0.01-10% of the preparation, or when applied at a concentration of 0.01% to 10% onto a bandaging material or a plaster for application onto the wound surface. An iron subsulfate solution was used as a reference. For efficiency evaluation the change in the pain sensation intensity on the visual analog scale (VAS) from 0 to 10 points in 1 minute after application of the product and after 2 days in everyday use was used.
# [9] = system: bleeding and pain after medical interventions; assay: Bleeding and pain in ENT, upper respiratory and digestive systems interventions (Example 2.17); format: in vivo, human
# Method: Evaluation of the claimed substance efficiency for reduction of bleeding and pain in ENT, upper respiratory and digestive systems pathologies, in the course of instrumentation studies of these systems. Patients with various medical interventions after treatment with haemostatic purpose and pain reduction were treated with the claimed preparation. An iron subsulfate solution was used as a reference. For efficiency evaluation the change in the pain sensation intensity on the visual analog scale (VAS) from 0 to 10 points was used.
# [10] = Nanostructure by electron-microscopic examination; format: physicochemical
# Method: (§1) The nanostructure is determined by the methods of dynamic light scattering using a Malvern Instruments Nanosizer Nano-ZS particle size analyzer and a FEI Tecnai G212Cryo12 transmission electron microscope enabling tp cool the samples at the boiling point of liquid nitrogen.
# [11] = Nanostructure by dynamic light scattering; format: physicochemical; details: preparation concentration 0.05 mg/ml
# Method: as §1
# [12] = 1 minute after application of the preparation
molecule,measurement,setting,value
"O=C(O)Cc1ccccc1Nc1c(Cl)cccc1Cl [Diclofenac solution, Diclofenac]",Pain sensation intensity on a visual analog scale,[1]; before treatment,6.9 +/− 0.8 points
same,Pain sensation intensity on a visual analog scale,[1]; in 1 minute,7.1 +/− 0.5 points
same,Pain sensation intensity on a visual analog scale,[1]; in 10 minute,7.2 +/− 0.6 points
"CCCCOc1cc(C(=O)OCCN(CC)CC)ccc1N [Oxybuprocaine, oxybuprocaine]",Pain sensation intensity on a visual analog scale,[2]; [12],2.2 +/− 0.4
same,Pain sensation intensity on a visual analog scale,[2]; before treatment,7.6 +/− 0.8
same,Pain sensation intensity on a visual analog scale,[2]; in 2 days (daily administration),0.5 +/− 0.1
same,"Rainier index (relative activity, Valet equation)",[3],63.5
same,duration of anesthesia,[3],24 min
"O=[N+]([O-])[O-].[Ag+] [Silver nitrate solution (1:200), Silver nitrate]",Relative intensity of bleeding,[4]; 120 seconds after application,1035.7 ± 119.0 mg/min
same,Relative intensity of bleeding,[4]; before application,1437.5 ± 141.6 mg/min
Ferric Subsulfate [iron subsulphate],Pain sensation intensity on a visual analog scale,[5]; before treatment,4.2 +/− 0.7
same,Pain sensation intensity on a visual analog scale,[5]; in 1 minute,4.4 +/− 0.7
same,Pain sensation intensity on a visual analog scale,[5]; in 5 days,4.2 +/− 0.7
same,Presence of bloody sputum,[5]; in 1 minute,+++
same,Relative intensity of bleeding from liver wounds,[6]; 180 seconds after application,652.6 ± 108.2 mg/min
same,Relative intensity of bleeding from liver wounds,[6]; before application,1326.4 ± 128.5 mg/min
same,Itch intensity on the Itch Severity Score (ISS) scale,[7]; [12],4 points
same,Itch intensity on the Itch Severity Score (ISS) scale,[7]; in 5 days (for daily administration),5 points
same,Pain sensation intensity on a visual analog scale,[8]; before treatment,4.2 +/− 0.2 points
same,Pain sensation intensity on a visual analog scale,[8]; in 1 minute,4.5 +/− 0.4 points
same,Pain sensation intensity on a visual analog scale,"[8]; in 2 days, everyday use",3.9 +/− 0.3 points
same,Pain sensation intensity on a visual analog scale,[9]; before treatment,4.7 +/− 0.5 points
same,Pain sensation intensity on a visual analog scale,[9]; in 1 minute,4.5 +/− 0.4 points
same,Pain sensation intensity on a visual analog scale,[9]; in 10 minute,4.6 +/− 0.5 points
polyammonia methanediamine chloride [the claimed preparation],size of globules,[10],10-15 nm
same,"Rainier index (relative activity, Valet equation)",[3],852.4
same,duration of anesthesia,[3],234 min
same,size of globules in solution,[11],10-15 nm
